Experimental data as given in patent publication US6911468B2, “Tyrosine phosphatase inhibitors” (Takeda Chemical Industries, Ltd., priority 2000, dated 2005).

Target: T1, PTP1B (Homo sapiens, UniProt P18031)
T1 construct: in order to express 1-321 amino acid region encoding enzyme active domain of PTP1B; made in house; host or cells: E. coli BL21 DE3 pLysS
T1 sequence (P18031 1-321): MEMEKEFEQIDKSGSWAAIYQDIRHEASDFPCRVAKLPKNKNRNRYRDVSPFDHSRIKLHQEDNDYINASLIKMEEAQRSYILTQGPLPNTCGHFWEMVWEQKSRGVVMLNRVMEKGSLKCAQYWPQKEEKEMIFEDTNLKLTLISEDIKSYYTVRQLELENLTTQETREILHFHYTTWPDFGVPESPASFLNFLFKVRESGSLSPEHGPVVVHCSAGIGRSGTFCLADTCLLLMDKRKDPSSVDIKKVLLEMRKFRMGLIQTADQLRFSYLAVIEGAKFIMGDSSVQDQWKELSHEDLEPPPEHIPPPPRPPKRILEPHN
Assay: Measurement of PTP1B Inhibitory Activity (dephosphorylation of p-nitrophenylphosphate, absorbance at 405 nm)
Type: biochemical
Conditions: PTP1B enzyme active domain (1-321 amino acid, 6 histidine residues at C-terminal), pNPP substrate, pH 6.5, 37° C. for 1 hour
Description: Based on the sequence of human PTP-1B registered in Genbank (M31724) database, primer 1 and primer 2 were synthesized, and PTP1B cDNA was amplified from human skeletal muscle cDNA library (Clonetech, Inc. HL5002a) according to PCR method using these primers. The cycle of reactions at 98° C. for 10 seconds, at 58° C. for 30 seconds and at 72° C. for 90 seconds was repeated 35 cycles. The PCR reaction product (1322 bp) was cloned to pT7 Blue-T vector (Novagen, Inc.) to identify the base sequence.
Human PTP 1B cDNA (1322 bp) (100 ng) was amplified with primer 3 and primer 4 in order to express 1-321 amino acid region encoding enzyme active domain of PTP1B. The PCR reaction product (976 bp) was cloned to pT7 Blue-T vector (Novagen, Inc.) to identify the base sequence.
The pT7 Blue-T vector-human PTP1B cDNA (976 bp) was cleaved with restriction enzymes NdeI and SalI (Takara Shuzo Co., Ltd.) and subjected to electrophoresis using 0.7% agarose gel, and a 969 bp fragment was excised and purified. The fragment was introduced into pET32a (+) vector (Novagen, Inc.) cleaved with restriction enzymes NdeI and XhoI (Takara Shuzo Co., Ltd.), to constitute a vector pET32a (+)-human PTP1B cDNA (969 bp), which expresses PTP1B (321 amino acid) with 6 histidine residues binded to a C-terminal thereof under a control of T7 lac promotor.
E.coli BL21 DE3 pLysS (Novagen, Inc.) was transformed with the pET32a (+)-human PTP 1B cDNA (969 bp) to give an ampicillin (50 μg/ml) resistant bacterium. This was shake cultured at 37° C. using 5L of 2xYT medium (ampicillin (50 μg/ml)). When OD600nm reached to 0.5, IPTG (Isopropyl b-D-Thiogalactoside) was added to the culture medium so as to be 1 mM in order to induce the expression of protein, and this medium was further cultured at 37° C. overnight. The bacterium was collected by centrifugation (8000 rpm, 10 minutes, 4° C.).
The bacterium was suspended in lysis buffer (50 ml) (20 mM Tris HCl (pH 8.0), 0.5 M NaCl, 1 mM PMSF, 5 mM benzamidine, Lysozyme 5 mg) and crushed by sonication. To the supernatant after centrifuging (12000 rpm, 10 minutes, 4° C.) was added imidazole so as to be 50 mM and the mixture was mixed with His Bind resin (Novagen, Inc.) binded with Ni ion (4° C., overnight). The mixture was washed with 200 ml of (20 mM Tris HCl (pH 8.0), 0.5 M NaCl, 1 mM PMSF, 5 mM benzamidine, 50 mM imidazole), eluted with (20 mM Tris HCl (pH 8.0), 0.5 M NaCl, 1 mM PMSF, 5 mM benzamidine, 400 mM imidazole) and concentrated by centrifugation using Ultrafree-15 Biomax-50 (MILLIPORE Corp.) (11 mg/ml, 4ml). The purified protein (PTP1B) was identified by Western blotting method using SDS-PAGE, coomassie Blue stain and anti-PTP1B antibody (UBI Inc.).
The PTP1B inhibitory activity of the test compound was evaluated by measuring the ability of the test compound to dephosphorylate p-nitrophenylphosphate (pNPP) (a change of the absorbance at 405 nm).
To a buffer for measurement of the activity (0.1 M sodium acetate (pH 6.5), 1 mM EDTA, 10 mM DTT) (10 ml) was added PTP1B enzyme solution (2 μl) and the mixture was added to each well of a 96-well microtiter plate (100 μl each). A solution of the test compound in DMSO (10 μl) and 2 mM pNPP/the buffer for measurement of the activity (90 μl) were then added to each well, and the absorbance at 405 nm was measured. After keeping at 37° C. for 1 hour, the absorbance was measured again to evaluate a change of the absorbance. Regarding the change of the absorbance in the absence of the test compound as 100%, the concentration of the compound necessary for 50% inhibition (IC50 value) was calculated.

IC50 | Compound
890 nM | O=C(O)[C@@H](Cc1ccccc1)Oc1ccc(-c2cccn2-c2ccc(Br)cc2)cc1 [Example 2, (2R)-2-{4-[1-(4-Bromophenyl)-1H-pyrrol-2-yl]phenoxy}-3-phenylpropanoic acid]
6480 nM | Cc1ccc(-c2ccc(/C=C/C(=O)O)cc2)n1-c1ccc(/C=C/C(=O)O)cc1 [Example 4, (2E)-3-[4-(1-{4-[(1E)-2-Carboxyethenyl]phenyl}-5-methyl-1H-pyrrol-2-yl)phenyl]-2-propenoic acid]
500 nM | Cc1ccc(-c2ccc(O[C@H](Cc3ccccc3)C(=O)O)cc2)n1-c1ccc(Br)cc1 [Example 6, (2R)-2-{4-[1-(4-Bromophenyl)-5-methyl-1H-pyrrol-2-yl]phenoxy}-3-phenylpropanoic acid]
380 nM | Cc1ccc(-c2cc(Br)c(O[C@H](Cc3ccccc3)C(=O)O)c(Br)c2)n1-c1ccc(Br)cc1 [Example 8, (2R)-2-{2,6-Dibromo-4-[1-(4-bromophenyl)-5-methyl-1H-pyrrol-2-yl]phenoxy}-3-phenylpropanoic acid]
340 nM | Cc1ccc(-c2ccc(-c3ccc(O[C@H](Cc4ccccc4)C(=O)O)cc3)cc2)n1-c1ccc(Br)cc1 [Example 10, (2R)-2-({4′-[1-(4-Bromophenyl)-5-methyl-1H-pyrrol-2-yl][1,1′-biphenyl]-4-yl}oxy)-3-phenylpropanoic acid]
5870 nM | O=C(O)CCc1ccc(-c2cccn2-c2ccc(CCC(=O)O)cc2)cc1 [Example 14, 3-(4-{1-[4-(2-Carboxyethyl)phenyl]-1H-pyrrol-2-yl}phenyl)propanoic acid]
410 nM | O=C(O)[C@@H](Cc1ccccc1)Oc1ccc(-c2cccn2-c2ccc(O[C@H](Cc3ccccc3)C(=O)O)cc2)cc1 [Example 16, (2R)-2-{4-[1-(4-{[(1R)-1-Carboxy-2-phenylethyl]oxy}phenyl)-1H-pyrrol-2-yl]phenoxy}-3-phenylpropanoic acid]
1010 nM | O=C(O)[C@@H](Cc1ccccc1)Oc1ccc(-n2cccc2-c2ccc(Br)cc2)cc1 [Example 18, (2R)-2-{4-[2-(4-bromophenyl)-1H-pyrrol-1-yl]phenoxy}-3-phenylpropanoic acid]
530 nM | CCc1ccc(-c2ccc(O[C@H](Cc3ccccc3)C(=O)O)cc2)n1-c1ccc(Br)cc1 [Example 20, (2R)-2-{4-[1-(4-bromophenyl)-5-ethyl-1H-pyrrol-2-yl]phenoxy}-3-phenylpropanoic acid]
710 nM | O=C(O)[C@@H](Cc1ccccc1)Oc1ccc(-c2ccc(-c3ccccc3)n2-c2ccc(Br)cc2)cc1 [Example 22, (2R)-2-{4-[1-(4-Bromophenyl)-5-phenyl-1H-pyrrol-2-yl]phenoxy}-3-phenylpropanoic acid]
320 nM | Cc1cc(-c2ccc(O[C@H](Cc3ccccc3)C(=O)O)cc2)n(-c2ccc(Br)cc2)c1C [Example 24, (2R)-2-{4-[1-(4-Bromophenyl)-4,5-dimethyl-1H-pyrrol-2-yl]phenoxy}-3-phenylpropanoic acid]
420 nM | Cc1cc(C)n(-c2ccc(Br)cc2)c1-c1ccc(O[C@H](Cc2ccccc2)C(=O)O)cc1 [Example 26, (2R)-2-{4-[1-(4-Bromophenyl)-3,5-dimethyl-1H-pyrrol-2-yl]phenoxy}-3-phenylpropanoic acid]
480 nM | CCCc1cc(C)n(-c2ccc(Br)cc2)c1-c1ccc(O[C@H](Cc2ccccc2)C(=O)O)cc1 [Example 28, (2R)-2-{4-[1-(4-Bromophenyl)-5-methyl-3-propyl-1H-pyrrol-2-yl]phenoxy}-3-phenylpropanoic acid]
720 nM | Cc1cc(-c2ccccc2)c(-c2ccc(O[C@H](Cc3ccccc3)C(=O)O)cc2)n1-c1ccc(Br)cc1 [Example 30, (2R)-2-{4-[1-(4-Bromophenyl)-5-methyl-3-phenyl-1H-pyrrol-2-yl]phenoxy}-3-phenylpropanoic acid]
2100 nM | Cc1ccc(-c2ccc(O[C@H](Cc3c[nH]c4ccccc34)C(=O)O)cc2)n1-c1ccc(Br)cc1 [Example 32, (2R)-2-{4-[1-(4-Bromophenyl)-5-methyl-1H-pyrrol-2-yl]phenoxy}-3-(1H-indol-3-yl)propanoic acid]
1100 nM | CCCc1ccc(-c2ccc(O[C@H](Cc3ccccc3)C(=O)O)cc2)n1-c1ccc(Br)cc1 [Example 34, (2R)-2-{4-[1-(4-Bromophenyl)-5-propyl-1H-pyrrol-2-yl]phenoxy}-3-phenylpropanoic acid]
1430 nM | O=C(O)[C@@H](Cc1ccccc1)Oc1ccc(-c2cccn2-c2ccccc2)cc1 [Example 36, (2R)-2-[4-(1-Phenyl-1H-pyrrol-2-yl)phenoxy]-3-phenylpropanoic acid]
1600 nM | Cc1ccc(-n2cccc2-c2ccc(O[C@H](Cc3ccccc3)C(=O)O)cc2)cc1 [Example 38, (2R)-2-{4-[1-(4-Methylphenyl)-1H-pyrrol-2-yl]phenoxy}-3-phenylpropanoic acid]
1200 nM | O=C(O)[C@@H](Cc1ccccc1)Oc1ccc(-c2cccn2-c2ccc(Cl)cc2)cc1 [Example 40, (2R)-2-{4-[1-(4-Chlorophenyl)-1H-pyrrol-2-yl]phenoxy}-3-phenylpropanoic acid]
4900 nM | O=C(O)[C@@H](Cc1ccccc1)Oc1ccc(-c2cccn2-c2ccc(C(F)(F)F)cc2)cc1 [Example 42, (2R)-2-{4-[1-(4-Trifluoromethylphenyl)-1H-pyrrol-2-yl]phenoxy}-3-phenylpropanoic acid]
330 nM | Cc1ccc(-c2ccc(O[C@H](Cc3ccccc3)C(=O)O)cc2)n1-c1ccc(Cl)cc1 [Example 44, (2R)-2-{4-[1-(4-chlorophenyl)-5-methyl-1H-pyrrol-2-yl]phenoxy}-3-phenylpropanoic acid]
400 nM | Cc1ccc(-c2ccc(O[C@H](Cc3ccccc3)C(=O)O)cc2)n1-c1ccc(C(F)(F)F)cc1 [Example 46, (2R)-2-{4-[5-Methyl-1-(4-trifluoromethylphenyl)-1H-pyrrol-2-yl]phenoxy}-3-phenylpropanoic acid]
360 nM | Cc1ccc(-c2ccc(O[C@H](Cc3ccccc3)C(=O)O)cc2)n1Cc1ccccc1 [Example 48, (2R)-2-[4-(1-Benzyl-5-methyl-1H-pyrrol-2-yl)phenoxy]-3-phenylpropanoic acid]
940 nM | Cc1ccc(-c2ccc(O[C@@H](Cc3ccccc3)C(=O)O)cc2)n1-c1ccc(Br)cc1 [Example 50, (2S)-2-{4-[1-(4-Bromophenyl)-5-methyl-1H-pyrrol-2-yl]phenoxy}-3-phenylpropanoic acid]
310 nM | Cc1ccc(-c2ccc(O[C@H](Cc3ccccc3)C(=O)O)cc2)n1CCc1ccc(Br)cc1 [Example 52, (2R)-2-(4-{1-[2-(4-bromophenyl)ethan-1-yl]-5-methyl-1H-pyrrol-2-yl}phenoxy)-3-phenylpropanoic acid]
